Source: patent EP1997826A2, “Synthetic ligands for immunoglobulins and pharmaceutical compositions containing them” (Tecnogen S.p.A., priority 2007, dated 2008)

Columns and labels:
[1] = tested on: immunoglobulins (IgG, IgM, IgA and IgE); assay: affinity chromatography of raw murine serum on peptide immobilized on CH-Sepharose-4B; type: binding; settings: Western Blot, albumin not retained
[2] = tested on: female mice of the Balb/c strain; type: in vivo, mouse
Method: Active cutaneous anaphylaxis on the mouse ear was induced according to the procedure described by Inagaki et al., Japan. J. Pharmacol. 1992, 59:201-208. Female mice of the Balb/c strain were immunized with the ovalbumin antigen in the presence of the adjuvant aluminium hydroxide gel (alum). The immunizations were carried out by intraperitoneal administration of 25 µg of ovalbumin and 1 mg of alum dissolved in 200 µl of PBS. A control group received intraperitoneal injections that only contained 1 mg of alum dissolved in 200 µl of PBS. […] After 30 minutes, the appearance, on the mouse ear, of stained areas in the dermis, with extent and intensity of staining proportional to the quantity of allergen injected, was observed. […] The sample was then stirred and filtered, and finally the amount of dye was determined with a spectrophotometer, taking readings at 620 nm. […] Extraction and quantification of the Evans Blue dye, discharged in the local inflammatory reaction, were carried out as described previously.

[3] = tested on: immunoglobulin fraction of the raw serum; assay: affinity chromatography of raw rabbit serum on peptide immobilized on CH-Sepharose-4B; type: binding; settings: 50 mM Bis-Tris pH 6.5, elution with acetic acid 0.1 M pH 3.0, albumin eluted to the dead volume
Method: The peptide of formula (IB) prepared in Example 1 (10 mg) was dissolved in 5 ml of aqueous solution of sodium bicarbonate 0.1 M, NaCl 0.5 M, pH 8.5 and then added to 0.5 g of activated resin CH-Sepharose-4B (Amersham Biosciences, Uppsala, Sweden, Cat. No. 17-0490-01), a preactivated support for affinity chromatography for the direct coupling of peptides and proteins. The suspension was stirred for 24 hours and the extent of coupling was monitored by taking samples of the reaction mixture, at various times, followed by analysis by RP-HPLC.
Approximately 90-95% of the initial peptide is found to be bound covalently to the resin after 24 hours. The derivatized resin is incubated with 0.1 M Tris, pH 8.5 to block any sites of the resin that are still reactive, and is then packed in a glass column 100 x 0.6 cm I.D. with a variable piston (OMNIFIT, Cat. No. 006CC-06-10-FF).
For the purification of immunoglobulins from serum, the column was equilibrated with a buffer 50 mM Bis-Tris (Sigma, Cat. No. B9754), pH 6.5, to a flow of 1 ml/min, monitoring the eluent at 280 nm. Raw rabbit serum (Sigma, Cat, No. R9133) was loaded in the column and, after elution of the material that was not bound, the eluent was changed to acetic acid 0.1 M, pH 3.0, for elution of the adsorbed material. […]

(H-L-Cys(p-MeOBzl)-D-Arg-D-Thr-D-Tyr)4-L-Lys2-L-Lys-L-Lys-OH [Peptide IB]
retention of immunoglobulins by the peptide column [1]: able to retain the immunoglobulins (IgG, IgM, IgA and IgE)
Inhibition of skin reaction (%) ([2]; Dose of Peptide 100 mg/kg intraperitoneally, 30 minutes before ovalbumin): 100%
activity greater than the activity of the comparative peptide ([2]; mouse ear active cutaneous anaphylaxis): approx. 15 times
retention of immunoglobulins by the peptide column [3]: able to retain the immunoglobulin fraction of the raw serum
